{
  "source": "patent US5449608A",
  "about": "“Parvovirus B19 receptor and parvovirus B19 detection” (The United States of America as represented by the …, priority 1993, dated 1995)",
  "key": {"human red cells": {"tested_on": "human red cells", "experiment": "Hemagglutination (HA) assay with reagent-treated erythrocytes and B19 empty capsids", "format": "cell-based", "conditions": "for Change in HA titer (log2): erythrocytes incubated with agent at 37° C.; for Effect of red cell treatment on binding of virus to the erythrocytes: human red cells treated with agent", "from_the_text": "(§1) The B19 parvovirus receptor was identified utilizing a hemagglutination (HA) assay as described in Brown and Cohen (1992). Briefly, the ability of B19 to hemagglutinate human red cells was utilized to evaluate the ability of certain compounds to inhibit agglutination in the assay. Cellular components from red cell membranes were fractionated and their reactivity evaluated in the HA assay. Lipid extraction and purification of glycolipid fractions followed by evaluation in the HA assay identified the glycosphingolipid, globoside, as the cellular receptor for B19. Further, biochemical characterization and HA evaluation identified the polysaccharide GalNAc(β,3-3)Gal(α1-4)Gal(β,1-4)Glc as the specific binding domain for B19. […] Antibodies specific for globoside were also utilized in the assay to block infectivity to verify that globoside was the receptor.\nIn order to characterize the physical nature of the B19 receptor, human red cells were treated with a variety of agents and the change in hemagglutination (HA) titer measured (ICE. Brown et al. (1992)) (Table 1).\nTable 1. Washed erythrocytes (0.5% v/v) were incubated at 37° C.\nwith the reagents, washed twice in saline and resuspended at 0.5%. The\ncells were used in a standard hemagglutination assay using B19 empty\ncapsids produced in insect cells (Brown and Cohen (1992)) the end point\nwas 50% HA (1 HA50). In the table, therefore, an increasing the HA\ntiter (log2) by a factor of one reflects a doubling of the measured"}, "B19 empty capsids [1]": {"tested_on": "B19 empty capsids", "experiment": "Hemagglutination inhibition assay (HAI)", "format": "binding, parvovirus B19", "conditions": "for HAI titer: Purified glycosphingolipid, 1 mg/ml in saline, 4-8 HA50 units of virus capsid", "from_the_text": "as §1\nTo identify the B19 cellular receptor, the ability of B19 to agglutinate red cells and B19 infectivity assays were used as measures of viral binding. It had been previously shown that B19 parvovirus empty capsids (S. Kajigaya et al. (1991)) agglutinate human red cells Brown and Cohen (1992)), and we tested the ability of membrane extracts from different cell types to block B19 binding in the hemagglutination assay (HA). Membrane extracts were prepared using 10 mM CHAPS (3-[(3cholamidopropyl)-dimethylammonio]-1-propanesulfonate) to solubilize proteins and lipids.\nTable 2. Human erythrocyte ghosts (J. T. Dodge, et al (1963)) were treate\nwith 10 mM CHAPS, the solubilized extract incubated with agarose\nimmobilized enzymes overnight at 37° C. and the supernatant tested\nin a hemagglutination inhibition assay (HAI). Purified glycosphingolipids\n(Sigma or BioCarb Chemicals) were dissolved in saline and tested by HAI\nusing 4-8 HA50 units of virus capsid. (In the table, CTH is ceramide\ntrihexoside and the HAI titer is the dilution required to reduce the HA t\nTable 3. Hemagglutination inhibition (HAI) titers red cell lipid\nfractionated on different columns. Lipid was extracted from red cell\nghosts (9,12) and fractionated on either a silica gel or\nDEAEcellulose-acetate column (13). Organic solvents were removed by\nevaporation and salts removed by dialysis against water and\nlyophilization. The residual pellets were resuspended in saline and teste\nin the hemagglutination assay."}, "B19 virus": {"tested_on": "B19 virus", "experiment": "Erythroid progenitor assay (CFU-E in methylcellulose) for B19 infection", "format": "cell-based, parvovirus B19", "conditions": "for Blocking of B19 cytotoxicity to CFU-E: B19 virus preincubated with globoceramide two hours, then bone marrow mononuclear cells two hours, CFU-E counted seven days later", "procedure": "To establish the biological relevance of binding of virus to P antigen, globoceramides were tested for their ability to block vital infection of permissive cells, using the erythroid progenitor assay (P. P. Mortimer et al. (1983)). Parvovirus B19 is highly toxic to the production of erythroid colonies from late erythroid progenitors (CFU-E) in methylcellulose culture, and this system was used as an assay for B19 infection. In the study, binding of B19 antigen to P antigen was shown by competition of infection using globoside or monoclonal antibody to P antigen. First, B19 virus was preincubated with different globoceramides, e.g., lactosyl, triosyl, and Forssman (Sigma or BioCarb Chemicals) and with different globoside concentrations for two hours, and then mixed with bone marrow mononuclear cells for a further two hours. […] Second, mouse monoclonal antibodies to P-antigen (A. E. yon dem Borne et al. (1986)) or P1 or p^k (BioCarb Chemicals) were diluted 1:100 and incubated with bone marrow mononuclear cells for two hours. Purified B19 virus as above was added for a further two hours. The cell mixtures were plated in methylcellulose (P. Mortimer et al. (1983)) and CFU-E counted seven days later. […] There was no protection with similar antibodies against P1 or p^k."}, "B19 empty capsids [2]": {"tested_on": "B19 empty capsids", "experiment": "Binding of viral capsids to glycosphingolipids by thin layer chromatography", "parameters": "species or system parvovirus B19", "conditions": "1 ug of purified glycosphingolipid on silica plate", "procedure": "Red cells from individuals with different blood group P system phenotypes were tested for their ability to agglutinate with parvovirus B19. Only cells containing P antigen hemagglutinated: P1 phenotype HA titer was 10,000; P2 phenotype HA titer was 5,000; P1^k and p phenotype were <200. […] Lipids were extracted from 0.2 mls packed red cells (H. Rose et al. (1965)) of patients with different P blood group phenotypes, dried and resuspended in 50 ul chloroform:methanol 1:1.20 ul of extract or 1 ug of each purified glycosphingolipid (Calbiochem) were applied to a silica plate (Merck) and chromatography performed with chloroform:methanol:water 65:25:4. Non-specific binding was blocked with 3% bovine albumin in phosphate buffered saline (16 hours) before the plates were sequentially incubated with B19 empty capsids, a human polyclonal anti-B19 serum, goat anti-human antibody conjugated with horse radish peroxidase, and developed with diaminobenzidene enhanced with cobalt chloride. The capsids bound to the globoside in P1 and P2 cells, and to purified globoside and Forssman antigen. B19 capsids and mouse monoclonal antibody to globoside (A. E. yon dem Borne et al. (1986)) bound to the same band on Western blotting of red cell extract, the putative \"globoprotein\" (Y. Tonegawa et al. (1977))."}},
  "data": [
    {"molecule": "OCCS", "note": "[2-Mercaptoethanol]", "values": [
      {"measurement": "Change in HA titer (log2)", "setting": "human red cells; time 1 hr, final conc. 5 mM", "value": 0, "unit": "log2"}
    ]},
    {"molecule": "Lactosyl ceramide", "values": [
      {"measurement": "HAI titer", "setting": "B19 empty capsids [1]", "value": "< 10"},
      {"measurement": "Blocking of B19 cytotoxicity to CFU-E", "setting": "B19 virus", "value": "no effect"}
    ]},
    {"molecule": "O=C(O)CN(CCN(CC(=O)O)CC(=O)O)CC(=O)O", "note": "[EDTA]", "values": [
      {"measurement": "Change in HA titer (log2)", "setting": "human red cells; time 1 hr, final conc. 5 mM", "value": 0, "unit": "log2"}
    ]},
    {"molecule": "C=O", "note": "[Formaldehyde]", "values": [
      {"measurement": "Change in HA titer (log2)", "setting": "human red cells; time 1 hr, final conc. 0.2%", "value": 0, "unit": "log2"}
    ]},
    {"molecule": "Trypsin", "values": [
      {"measurement": "Change in HA titer (log2)", "setting": "human red cells; time 1 hr, final conc. 0.2%", "value": "+4 log2"},
      {"measurement": "Effect of red cell treatment on binding of virus to the erythrocytes", "setting": "human red cells", "value": "increased binding"}
    ]},
    {"molecule": "globotriaosylceramide [CTH, P^k]", "values": [
      {"measurement": "HAI titer", "setting": "B19 empty capsids [1]", "value": "< 10"},
      {"measurement": "Blocking of B19 cytotoxicity to CFU-E", "setting": "B19 virus", "value": "no effect"}
    ]},
    {"molecule": "globotetraosylceramide [Globoside, P]", "values": [
      {"measurement": "Inhibition of hemagglutination by B19", "setting": "B19 empty capsids [1]", "value": "inhibitory activity"},
      {"measurement": "HAI titer", "setting": "B19 empty capsids [1]", "value": 25600},
      {"measurement": "Blocking of B19 cytotoxicity to CFU-E", "setting": "B19 virus", "value": "completely blocked"},
      {"measurement": "Relationship of concentration to ability to block infectivity of mononuclear cells with B19 virus", "setting": "B19 virus; different globoside concentrations", "value": "positive linear relationship"},
      {"measurement": "Binding of B19 capsids on thin layer chromatography plate", "setting": "B19 empty capsids [2]", "value": "bound"}
    ]},
    {"molecule": "O[C@H](CS)[C@H](O)CS", "note": "(racemic) [Dithiothreitol]", "values": [
      {"measurement": "Change in HA titer (log2)", "setting": "human red cells; time 1 hr, final conc. 4 mM", "value": 0, "unit": "log2"}
    ]},
    {"molecule": "[Na+].[O-][I+3]([O-])([O-])[O-]", "note": "[NaIO4, sodium periodate]", "values": [
      {"measurement": "decrease in HA titer", "setting": "human red cells; High concentrations (10 mM)", "value": "> 4", "unit": "log2"},
      {"measurement": "Change in HA titer (log2)", "setting": "human red cells; time 15 min, final conc. 10 mM", "value": "< -4", "unit": "log2"},
      {"measurement": "Change in HA titer (log2)", "setting": "human red cells; time 20 hr, final conc. 5 uM", "value": -1, "unit": "log2"},
      {"measurement": "Effect of red cell treatment on binding of virus to the erythrocytes", "setting": "human red cells", "value": "markedly reduced binding"}
    ]}
  ]
}
